These are literature values, as cited in patent US6623768B1, “Pharmaceutically active composition extracted from Ferula hermonis and process of its extraction” (priority 2002, dated 2003).

The structures appear in SMILES notation.

The subject of this series is adult female rats.

Consider `COc1cc(C(=O)O[C@H]2CC(C)=CC[C@@]3(C)CC[C@@](O)(C(C)C)[C@H]23)ccc1O` [jaeschkeanadiol vanillate], for which, for the setting “administered orally on 1 to 7 post coitum, adult female rats”, the prevention of pregnancy result was “prevent pregnancy”. The “prevention of pregnancy after single dose” value (single oral administration of 5 mg per kg on the first day of post coitum, rats) was “prevented pregnancy”.
